{"source": "patent US10584128B2", "about": "“Bicyclic dihydropyrimidine-carboxamide derivatives as Rho-Kinase inhibitors” (CHIESI FARMACEUTICI S.p.A., priority 2016, dated 2020)", "key": {"Rho kinase 1": {"biological_target": "Rho kinase 1 (Homo sapiens, UniProt Q13464)", "sequence (Q13464 whole entry)": "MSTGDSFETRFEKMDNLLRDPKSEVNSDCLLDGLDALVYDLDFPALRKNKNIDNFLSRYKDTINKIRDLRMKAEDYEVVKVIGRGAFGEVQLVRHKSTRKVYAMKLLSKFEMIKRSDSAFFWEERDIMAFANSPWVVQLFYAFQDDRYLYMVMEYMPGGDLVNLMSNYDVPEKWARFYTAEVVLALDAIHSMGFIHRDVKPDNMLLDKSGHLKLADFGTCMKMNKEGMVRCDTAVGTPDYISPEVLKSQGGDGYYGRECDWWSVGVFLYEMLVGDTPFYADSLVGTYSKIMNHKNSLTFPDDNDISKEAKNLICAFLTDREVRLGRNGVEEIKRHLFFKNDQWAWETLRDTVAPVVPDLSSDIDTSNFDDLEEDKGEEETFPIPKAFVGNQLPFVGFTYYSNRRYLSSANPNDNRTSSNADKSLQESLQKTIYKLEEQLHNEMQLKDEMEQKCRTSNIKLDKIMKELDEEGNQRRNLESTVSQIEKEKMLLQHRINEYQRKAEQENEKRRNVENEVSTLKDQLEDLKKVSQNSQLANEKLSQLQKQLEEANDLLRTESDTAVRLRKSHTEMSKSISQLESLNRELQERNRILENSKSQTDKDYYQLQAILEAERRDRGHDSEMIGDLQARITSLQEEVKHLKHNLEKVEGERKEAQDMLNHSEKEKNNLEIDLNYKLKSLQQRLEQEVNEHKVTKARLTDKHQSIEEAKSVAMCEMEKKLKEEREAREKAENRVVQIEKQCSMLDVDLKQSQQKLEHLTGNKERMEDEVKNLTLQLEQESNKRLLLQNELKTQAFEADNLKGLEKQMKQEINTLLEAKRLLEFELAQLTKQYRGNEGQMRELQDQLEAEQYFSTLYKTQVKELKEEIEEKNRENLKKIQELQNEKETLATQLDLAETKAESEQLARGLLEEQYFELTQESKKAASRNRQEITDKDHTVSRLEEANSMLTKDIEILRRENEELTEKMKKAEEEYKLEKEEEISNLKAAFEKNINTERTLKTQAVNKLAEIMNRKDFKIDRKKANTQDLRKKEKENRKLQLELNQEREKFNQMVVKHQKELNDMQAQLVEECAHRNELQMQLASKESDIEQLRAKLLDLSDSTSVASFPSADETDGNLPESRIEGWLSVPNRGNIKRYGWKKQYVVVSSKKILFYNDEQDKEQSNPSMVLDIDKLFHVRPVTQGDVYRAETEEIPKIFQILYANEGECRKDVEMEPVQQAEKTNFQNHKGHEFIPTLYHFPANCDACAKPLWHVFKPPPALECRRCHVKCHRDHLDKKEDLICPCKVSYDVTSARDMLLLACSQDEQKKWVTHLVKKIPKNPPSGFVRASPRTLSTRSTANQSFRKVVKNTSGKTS", "assay": "In vitro Rho kinase inhibitory activity assay (ADP-Glo kit, Myelin Basic Protein substrate)", "assay_type": "biochemical", "settings": "10 μM ATP, 25° C., read-out: ROCK1 inhibitory activity (Ki, range of activity)", "outline": "(§1)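 Each kinase (ROCK1 or ROCK2) sat with compound for 30 min at 25 °C before 10 μM ATP started a 1 h reaction on 2.5 μM myelin basic protein (Tris pH 7.5, MgCl2, BSA, DTT, 1% DMSO). ADP formed was read by ADP-Glo luminescence. Dose-response IC50s were converted to Ki by Cheng-Prusoff.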"}, "Rho kinase 2": {"biological_target": "Rho kinase 2 (Homo sapiens, UniProt O75116)", "sequence (O75116 whole entry)": "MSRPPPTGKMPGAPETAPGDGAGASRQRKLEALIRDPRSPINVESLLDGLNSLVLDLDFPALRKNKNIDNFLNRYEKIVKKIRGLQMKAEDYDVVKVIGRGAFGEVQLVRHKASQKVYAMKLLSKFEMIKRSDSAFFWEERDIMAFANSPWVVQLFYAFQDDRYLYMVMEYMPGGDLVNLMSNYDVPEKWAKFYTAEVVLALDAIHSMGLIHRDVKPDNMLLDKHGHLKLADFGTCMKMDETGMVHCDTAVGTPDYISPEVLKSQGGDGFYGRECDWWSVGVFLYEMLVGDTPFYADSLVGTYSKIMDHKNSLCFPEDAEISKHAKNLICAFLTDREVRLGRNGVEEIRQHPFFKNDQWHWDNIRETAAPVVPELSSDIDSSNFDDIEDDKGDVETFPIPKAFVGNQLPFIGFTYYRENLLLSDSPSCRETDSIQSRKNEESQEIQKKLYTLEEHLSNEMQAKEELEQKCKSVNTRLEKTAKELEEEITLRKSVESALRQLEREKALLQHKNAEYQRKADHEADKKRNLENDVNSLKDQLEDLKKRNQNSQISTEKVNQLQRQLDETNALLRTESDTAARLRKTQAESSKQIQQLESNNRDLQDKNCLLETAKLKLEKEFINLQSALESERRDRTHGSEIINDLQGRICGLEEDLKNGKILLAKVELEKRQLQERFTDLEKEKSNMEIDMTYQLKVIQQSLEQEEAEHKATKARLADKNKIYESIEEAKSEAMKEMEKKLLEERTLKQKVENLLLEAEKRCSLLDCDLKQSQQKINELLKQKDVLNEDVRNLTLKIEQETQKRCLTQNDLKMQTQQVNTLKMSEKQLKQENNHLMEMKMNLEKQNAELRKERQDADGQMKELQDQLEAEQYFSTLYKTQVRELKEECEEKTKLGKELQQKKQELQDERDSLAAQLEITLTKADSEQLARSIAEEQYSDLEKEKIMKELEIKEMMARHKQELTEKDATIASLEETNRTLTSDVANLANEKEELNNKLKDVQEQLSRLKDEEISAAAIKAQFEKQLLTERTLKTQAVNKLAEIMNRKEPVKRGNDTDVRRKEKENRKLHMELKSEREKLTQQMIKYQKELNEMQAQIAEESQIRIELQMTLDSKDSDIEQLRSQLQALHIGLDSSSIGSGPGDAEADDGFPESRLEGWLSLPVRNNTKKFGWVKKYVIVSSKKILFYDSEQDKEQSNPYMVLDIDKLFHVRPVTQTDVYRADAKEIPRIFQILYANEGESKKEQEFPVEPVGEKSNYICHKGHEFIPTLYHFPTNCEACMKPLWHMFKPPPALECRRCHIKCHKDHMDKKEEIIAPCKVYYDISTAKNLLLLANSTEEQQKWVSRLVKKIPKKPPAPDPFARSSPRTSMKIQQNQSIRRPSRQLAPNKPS", "assay": "In vitro Rho kinase inhibitory activity assay (ADP-Glo kit, Myelin Basic Protein substrate)", "assay_type": "biochemical", "settings": "10 μM ATP, 25° C., read-out: ROCK2 inhibitory activity (Ki, range of activity)", "outline": "as §1"}}, "note": "pKi: −log10 of the molar value."}
{"smiles": "COCc1cc2n(n1)C(c1ccc(C(F)(F)F)c(F)c1)C(C(=O)Nc1ccc3cnccc3c1)=C(C)N2", "note": "(stereo not shown) [Example 36, 7-(3-fluoro-4-(trifluoromethyl)phenyl)-N-(isoquinolin-6-yl)-2-(methoxymethyl)-5-methyl-4,7-dihydropyrazolo[1,5-a]pyrimidine-6-carboxamide]", "values": [{"measurement": "pKi", "setting": "Rho kinase 1", "value": "> 7.30"}, {"measurement": "pKi", "setting": "Rho kinase 2", "value": "> 7.30"}]}
{"smiles": "CC1=C(C(=O)Nc2ccc3cnccc3c2)C(c2ccc(C(F)(F)F)c(F)c2)n2nc(CCN(C)C)cc2N1", "note": "(stereo not shown) [Example 37, 2-(2-(dimethylamino)ethyl)-7-(3-fluoro-4-(trifluoromethyl)phenyl)-N-(isoquinolin-6-yl)-5-methyl-4,7-dihydropyrazolo[1,5-a]pyrimidine-6-carboxamide]", "values": [{"measurement": "pKi", "setting": "Rho kinase 1", "value": "> 7.30"}, {"measurement": "pKi", "setting": "Rho kinase 2", "value": "> 7.30"}]}
{"smiles": "COCc1cc2n(n1)C(c1ccc3cc[nH]c3c1)C(C(=O)Nc1ccc3cnccc3c1)=C(C)N2", "note": "(stereo not shown) [Example 38, 7-(1H-indol-6-yl)-N-(isoquinolin-6-yl)-2-(methoxymethyl)-5-methyl-4,7-dihydropyrazolo[1,5-a]pyrimidine-6-carboxamide]", "values": [{"measurement": "pKi", "setting": "Rho kinase 1", "value": "> 7.30"}, {"measurement": "pKi", "setting": "Rho kinase 2", "value": "> 7.30"}]}
{"smiles": "CC1=C(C(=O)Nc2cc3cn[nH]c3cc2F)C(c2ccc(Cl)nc2)n2nc(C(F)(F)F)cc2N1", "note": "(stereo not shown) [Example 39, 7-(6-chloropyridin-3-yl)-N-(6-fluoro-1H-indazol-5-yl)-5-methyl-2-(trifluoromethyl)-4,7-dihydropyrazolo[1,5-a]pyrimidine-6-carboxamide]", "values": [{"measurement": "pKi", "setting": "Rho kinase 1", "value": "> 7.30"}, {"measurement": "pKi", "setting": "Rho kinase 2", "value": "> 7.30"}]}
{"smiles": "CCOC(=O)c1cc2n(n1)C(c1ccc(C(F)(F)F)c(F)c1)C(C(=O)Nc1cc3cnccc3s1)=C(C)N2", "note": "(stereo not shown) [Example 41, Ethyl 7-(3-fluoro-4-(trifluoromethyl)phenyl)-5-methyl-6-(thieno[3,2-c]pyridin-2-ylcarbamoyl)-4,7-dihydropyrazolo[1,5-a]pyrimidine-2-carboxylate]", "values": [{"measurement": "pKi", "setting": "Rho kinase 1", "value": "< 6.30"}, {"measurement": "pKi", "setting": "Rho kinase 2", "value": "6.30 to 7.30"}]}
{"smiles": "CCOC(=O)c1cc2n(n1)C(c1ccc(C(F)(F)F)c(F)c1)C(C(=O)Nc1cc3ccncc3s1)=C(C)N2", "note": "(stereo not shown) [Example 42, ethyl 7-(3-fluoro-4-(trifluoromethyl)phenyl)-5-methyl-6-(thieno[2,3-c]pyridin-2-ylcarbamoyl)-4,7-dihydropyrazolo[1,5-a]pyrimidine-2-carboxylate]", "values": [{"measurement": "pKi", "setting": "Rho kinase 1", "value": "> 7.30"}, {"measurement": "pKi", "setting": "Rho kinase 2", "value": "> 7.30"}]}
{"smiles": "CC1=C(C(=O)Nc2ccc3cnccc3c2)C(c2cccc3c2ccn3C)n2nc(CO)cc2N1", "note": "(stereo not shown) [Example 44, 2-(hydroxymethyl)-N-(isoquinolin-6-yl)-5-methyl-7-(1-methyl-1H-indol-4-yl)-4,7-dihydropyrazolo[1,5-a]pyrimidine-6-carboxamide]", "values": [{"measurement": "pKi", "setting": "Rho kinase 1", "value": "6.30 to 7.30"}, {"measurement": "pKi", "setting": "Rho kinase 2", "value": "6.30 to 7.30"}]}
{"smiles": "CC1=C(C(=O)Nc2ccc3cnccc3c2)C(c2ccc3ncn(C)c3c2)n2nc(CO)cc2N1", "note": "(stereo not shown) [Example 45, 2-(hydroxymethyl)-N-(isoquinolin-6-yl)-5-methyl-7-(1-methyl-1H-benzo[d]imidazol-6-yl)-4,7-dihydropyrazolo[1,5-a]pyrimidine-6-carboxamide]", "values": [{"measurement": "pKi", "setting": "Rho kinase 1", "value": "< 6.30"}, {"measurement": "pKi", "setting": "Rho kinase 2", "value": "< 6.30"}]}
{"smiles": "CC1=C(C(=O)Nc2ccc3cnccc3c2)C(c2ccc3ccsc3c2)n2nc(CO)cc2N1", "note": "(stereo not shown) [Example 46, 7-(benzo[b]thiophen-6-yl)-2-(hydroxymethyl)-N-(isoquinolin-6-yl)-5-methyl-4,7-dihydropyrazolo[1,5-a]pyrimidine-6-carboxamide]", "values": [{"measurement": "pKi", "setting": "Rho kinase 1", "value": "> 7.30"}, {"measurement": "pKi", "setting": "Rho kinase 2", "value": "> 7.30"}]}
{"smiles": "CC1=C(C(=O)Nc2ccc3cnccc3c2)C(c2ccc(Cl)c(C(F)(F)F)c2)n2nc(CO)cc2N1", "note": "(stereo not shown) [Example 47, 7-(4-chloro-3-(trifluoromethyl)phenyl)-2-(hydroxymethyl)-N-(isoquinolin-6-yl)-5-methyl-4,7-dihydropyrazolo[1,5-a]pyrimidine-6-carboxamide]", "values": [{"measurement": "pKi", "setting": "Rho kinase 1", "value": "> 7.30"}, {"measurement": "pKi", "setting": "Rho kinase 2", "value": "> 7.30"}]}
{"smiles": "CC1=C(C(=O)Nc2ccc3cnccc3c2)C(C23CC4CC(CC(C4)C2)C3)n2nc(CO)cc2N1", "note": "(stereo not shown) [Example 48, 7-((3r,5r,7r)-adamantan-1-yl)-2-(hydroxymethyl)-N-(isoquinolin-6-yl)-5-methyl-4,7-dihydropyrazolo[1,5-a]pyrimidine-6-carboxamide]", "values": [{"measurement": "pKi", "setting": "Rho kinase 1", "value": "6.30 to 7.30"}, {"measurement": "pKi", "setting": "Rho kinase 2", "value": "6.30 to 7.30"}]}
{"smiles": "CC1=C(C(=O)Nc2ccc3cnccc3c2)C(c2cnc(-c3ccccc3)o2)n2nc(CO)cc2N1", "note": "(stereo not shown) [Example 49, 2-(hydroxymethyl)-N-(isoquinolin-6-yl)-5-methyl-7-(2-phenyloxazol-5-yl)-4,7-dihydropyrazolo[1,5-a]pyrimidine-6-carboxamide]", "values": [{"measurement": "pKi", "setting": "Rho kinase 1", "value": "6.30 to 7.30"}, {"measurement": "pKi", "setting": "Rho kinase 2", "value": "> 7.30"}]}
{"smiles": "CC1=C(C(=O)Nc2ccc3cnccc3c2)C(c2cccc(Oc3ccccc3)c2)n2nc(CO)cc2N1", "note": "(stereo not shown) [Example 50, 2-(hydroxymethyl)-N-(isoquinolin-6-yl)-5-methyl-7-(3-phenoxyphenyl)-4,7-dihydropyrazolo[1,5-a]pyrimidine-6-carboxamide]", "values": [{"measurement": "pKi", "setting": "Rho kinase 1", "value": "6.30 to 7.30"}, {"measurement": "pKi", "setting": "Rho kinase 2", "value": "> 7.30"}]}
{"smiles": "CC1=C(C(=O)Nc2ccc3cnccc3c2)C(c2cccc(C(F)(F)F)c2)n2nc(CO)cc2N1", "note": "(stereo not shown) [Example 51, 2-(hydroxymethyl)-N-(isoquinolin-6-yl)-5-methyl-7-(3-(trifluoromethyl)phenyl)-4,7-dihydropyrazolo[1,5-a]pyrimidine-6-carboxamide]", "values": [{"measurement": "pKi", "setting": "Rho kinase 1", "value": "> 7.30"}, {"measurement": "pKi", "setting": "Rho kinase 2", "value": "> 7.30"}]}
{"smiles": "CC1=C(C(=O)Nc2ccc3cnccc3c2)C(c2cnc(-c3ccccc3)s2)n2nc(CO)cc2N1", "note": "(stereo not shown) [Example 52, 2-(hydroxymethyl)-N-(isoquinolin-6-yl)-5-methyl-7-(2-phenylthiazol-5-yl)-4,7-dihydropyrazolo[1,5-a]pyrimidine-6-carboxamide]", "values": [{"measurement": "pKi", "setting": "Rho kinase 1", "value": "> 7.30"}, {"measurement": "pKi", "setting": "Rho kinase 2", "value": "> 7.30"}]}
{"smiles": "CC1=C(C(=O)Nc2ccc3cnccc3c2)C(CCc2ccccc2)n2nc(CO)cc2N1", "note": "(stereo not shown) [Example 53, 2-(hydroxymethyl)-N-(isoquinolin-6-yl)-5-methyl-7-phenethyl-4,7-dihydropyrazolo[1,5-a]pyrimidine-6-carboxamide]", "values": [{"measurement": "pKi", "setting": "Rho kinase 1", "value": "> 7.30"}, {"measurement": "pKi", "setting": "Rho kinase 2", "value": "> 7.30"}]}
{"smiles": "CC1=C(C(=O)Nc2ccc3cnccc3c2)C(c2ccc(C(C)(C)C)cc2)n2nc(CO)cc2N1", "note": "(stereo not shown) [Example 54, 7-(4-(tert-butyl)phenyl)-2-(hydroxymethyl)-N-(isoquinolin-6-yl)-5-methyl-4,7-dihydropyrazolo[1,5-a]pyrimidine-6-carboxamide]", "values": [{"measurement": "pKi", "setting": "Rho kinase 1", "value": "6.30 to 7.30"}, {"measurement": "pKi", "setting": "Rho kinase 2", "value": "> 7.30"}]}
{"smiles": "CC1=C(C(=O)Nc2ccc3cnccc3c2)C(c2ccc(Br)c(F)c2)n2nc(CO)cc2N1", "note": "(stereo not shown) [Example 55, 7-(4-bromo-3-fluorophenyl)-2-(hydroxymethyl)-N-(isoquinolin-6-yl)-5-methyl-4,7-dihydropyrazolo[1,5-a]pyrimidine-6-carboxamide]", "values": [{"measurement": "pKi", "setting": "Rho kinase 1", "value": "> 7.30"}, {"measurement": "pKi", "setting": "Rho kinase 2", "value": "> 7.30"}]}
{"smiles": "CC1=C(C(=O)Nc2ccc3cnccc3c2)C(c2ccc(C(F)(F)F)c(F)c2F)n2nc(CO)cc2N1", "note": "(stereo not shown) [Example 56, 7-(2,3-difluoro-4-(trifluoromethyl)phenyl)-2-(hydroxymethyl)-N-(isoquinolin-6-yl)-5-methyl-4,7-dihydropyrazolo[1,5-a]pyrimidine-6-carboxamide]", "values": [{"measurement": "pKi", "setting": "Rho kinase 1", "value": "> 7.30"}, {"measurement": "pKi", "setting": "Rho kinase 2", "value": "> 7.30"}]}
{"smiles": "CC1=C(C(=O)Nc2ccc3cnccc3c2)C(c2ccc(Cl)c(F)c2)n2nc(CO)cc2N1", "note": "(stereo not shown) [Example 57, 7-(4-chloro-3-fluorophenyl)-2-(hydroxymethyl)-N-(isoquinolin-6-yl)-5-methyl-4,7-dihydropyrazolo[1,5-a]pyrimidine-6-carboxamide]", "values": [{"measurement": "pKi", "setting": "Rho kinase 1", "value": "> 7.30"}, {"measurement": "pKi", "setting": "Rho kinase 2", "value": "> 7.30"}]}
